Each structure is given as a SMILES string.

Chain of human DGAT2 (hDGAT2) (Q96PD7 whole entry): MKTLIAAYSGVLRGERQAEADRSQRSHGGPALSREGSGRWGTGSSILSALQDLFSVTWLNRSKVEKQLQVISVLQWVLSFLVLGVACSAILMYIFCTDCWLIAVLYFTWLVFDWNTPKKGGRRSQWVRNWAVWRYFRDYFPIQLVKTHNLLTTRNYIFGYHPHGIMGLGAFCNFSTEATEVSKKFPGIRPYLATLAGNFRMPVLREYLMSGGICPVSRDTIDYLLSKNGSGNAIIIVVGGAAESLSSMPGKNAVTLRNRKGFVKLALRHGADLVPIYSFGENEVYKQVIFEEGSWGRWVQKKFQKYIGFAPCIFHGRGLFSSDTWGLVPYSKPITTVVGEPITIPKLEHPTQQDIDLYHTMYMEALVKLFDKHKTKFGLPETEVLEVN

In this assay the target is human DGAT2 (hDGAT2) (Homo sapiens (Human), UniProt Q96PD7). Nature of the assay: DGAT2 Enzymatic Activity Assay. Format: biochemical. Particulars: membrane prep of Sf-9 insect cells expressing hDGAT2; 13C18-triolein product by LC/MS/MS. On the procedure:
Sf-9 insect cells were maintained in Grace's insect cell culture medium with 10% heated-inactivated fetal bovine serum, 1% Pluronic F-68 and 0.14 μg/ml Kanamycine sulfate at 27° C. in a shaker incubator. After infection with untagged baculovirus expressing human DGAT2 (hDGAT2) at multiplicity of infection (MOI) 3 for 48 hours, cells were harvested. Cell pellets were suspended in buffer containing 10 mM Tris-HCl pH 7.5, 1 mM EDTA, 250 mM sucrose and Complete Protease Inhibitor Cocktail (Sigma Aldrich), and sonicated on ice. Cell debris were removed by centrifugation at 2000×g for 15 minutes. Membrane fractions were isolated by ultracentrifugation (100,000×g), resuspended in the same buffer, and frozen (−80° C.) for later use. The protein concentration was determined with the Pierce™ BCA Protein Assay Kit (Thermo Fisher Scientific). Expression of protein levels was analyzed by immunoblotting with rabbit anti-DGAT2 antibody (Abcam, ab102831) and donkey anti-rabbit IgG H&L Alexa Fluor® 647 (Abcam, ab150075) followed by detection using Typhoon FLA9000 (GE Healthcare).
LC/MS/MS analyses were performed using Thermal Fisher's LX4-TSQ Vantage system. This system consists of an Agilent binary high-performance liquid chromatography (HPLC) pumps and a TSQ Vantage triple quadrupole MS/MS instrument. For each sample, 2 μL samples from the top organic layer of in-plate liquid-liquid extraction were injected onto a Thermo Betabasic C4 column (2.1 mm×20 mm, 5 μm particle size). The samples were then eluted using the following conditions; mobile phase: Isopropanol: acetonitrile/10 mM ammonium formate=50/35/15 (v/v/v), flow rate: 0.8 mL/min, temperature: 25° C. Data was acquired in positive mode using a heated electrospray ionization (HESI) interface. The operational parameters for the TSQ Vantage MS/MS instrument were a spray voltage of 3000 V, capillary temperature of 280° C., vaporizer temperature 400° C., sheath gas 45 arbitrary unit, Aux gas 10 arbitrary units, S-lens 165 and collision gas 1.0 mTorr. […] (SRM) chromatograms of ^13C18-triolein (Q1: 920.8>Q3:621.3) and internal standard ^13C21-triolein (Q1: 923.8>Q3:617.3) were collected for 33 sec. The peak area was integrated by Xcalibur Quan software. The ratio between the ^13C18 triolein generated in the reaction and spiked in internal standard ^13C21-triolein was used to generate percentage inhibition and IC50 values. Compound percentage inhibition was calculated by the following formula: Inhibition %=1−[(compound response−low control)/(high control−low control)]×100%. Potent compounds were titrated and IC50 were calculated by 4 parameter sigmoidal curve fitting formula.
DGAT2 activity was determined by measuring the amount of enzymatic product ^13C18-triolein (^13C-1,2,3-Tri(cis-9-octadecenoyl)glycerol) using the membrane prep mentioned above. The assay was carried out in ABgene 384-well assay plates in a final volume of 25 μL at rt. The assay mixture contained the following: assay buffer (100 mM Tris·Cl, pH 7.0, 20 mM MgCl2, 5% ethanol), 25 μM of diolein, 5 μM of ^13C oleoyl-CoA and 8 ng/μL of DGAT2 membrane.
For `CC(C)n1nc(-c2ccnc(N(C)C)c2)c2ncc(C(=O)NC3(C)CS(=O)(=O)C3)cc21` [Example 125, 3-(2-(dimethylamino)pyridin-4-yl)-1-isopropyl-N-(3-methyl-1,1-dioxidothietan-3-yl)-1H-pyrazolo[4,3-b]pyridine-6-carboxamide], the IC50 (in general, the concentration needed to halve the response being measured) is greater than 1000 nM.
In the case of `C[C@]1(NC(=O)c2cc3c(cn2)c(-c2cccc(OC(F)F)c2)cn3C2CCOCC2)CCS(=O)(=O)C1` [Example 82, (S)-3-(3-(difluoromethoxy)phenyl)-N-(3-methyl-1,1-dioxidotetrahydrothiophen-3-yl)-1-(tetrahydro-2H-pyran-4-yl)-1H-pyrrolo[3,2-c]pyridine-6-carboxamide] it was 612 nM; in that of `C[C@]1(NC(=O)c2cc3c(cn2)c(-c2ccccc2Cl)cn3-c2ccc(F)cc2)CCS(=O)(=O)C1` [Example 14, (S)-3-(2-chlorophenyl)-1-(4-fluorophenyl)-N-(3-methyl-1,1-dioxidotetrahydrothiophen-3-yl)-1H-pyrrolo[3,2-c]pyridine-6-carboxamide], 292 nM.
In the case of `C[C@]1(NC(=O)c2cc3c(cn2)c(-c2cncc(OC(F)F)c2)nn3C2CCOCC2)CCS(=O)(=O)C1` [Example 79, (S)-3-(5-(difluoromethoxy)pyridin-3-yl)-N-(3-methyl-1,1-dioxidotetrahydrothiophen-3-yl)-1-(tetrahydro-2H-pyran-4-yl)-1H-pyrazolo[4,3-c]pyridine-6-carboxamide] it was 10000 nM; in that of `CC1(NC(=O)c2cnc3c(-c4cccc(OC(F)F)c4)nn(CC4CCOCC4)c3c2)CS(=O)(=O)C1` [Example 69, 3-(3-(difluoromethoxy)phenyl)-N-(3-methyl-1,1-dioxidothietan-3-yl)-1-((tetrahydro-2H-pyran-4-yl)methyl)-1H-pyrazolo[4,3-b]pyridine-6-carboxamide], 59 nM; in that of `CC(C)n1nc(-c2cccc(C#N)c2)c2ncc(C(=O)NC3(C)CS(=O)(=O)C3)cc21` [Example 108, 3-(3-cyanophenyl)-1-isopropyl-N-(3-methyl-1,1-dioxidothietan-3-yl)-1H-pyrazolo[4,3-b]pyridine-6-carboxamide], 109 nM.
To `CCN1CCN(C(=O)c2cnc3c(-c4cncc(OC(F)F)c4)nn(C(C)C)c3c2)CC1` [Example 58, (3-(5-(difluoromethoxy)pyridin-3-yl)-1-isopropyl-1H-pyrazolo[4,3-b]pyridin-6-yl)(4-ethylpiperazin-1-yl)methanone] belongs greater than 1000 nM; to `CC(C)n1nc(-c2cccc(C3(C(F)(F)F)CC3)c2)c2ncc(C(=O)NC3(C)CS(=O)(=O)C3)cc21` [Example 107, 1-isopropyl-N-(3-methyl-1,1-dioxidothietan-3-yl)-3-(3-(1-(trifluoromethyl)cyclopropyl)phenyl)-1H-pyrazolo[4,3-b]pyridine-6-carboxamide], 2280 nM.
As for `CCOc1ccc(F)c(-c2nn(C(C)C)c3cc(C(=O)NC4(C)CS(=O)(=O)C4)cnc23)c1` [Example 115, 3-(5-ethoxy-2-fluorophenyl)-1-isopropyl-N-(3-methyl-1,1-dioxidothietan-3-yl)-1H-pyrazolo[4,3-b]pyridine-6-carboxamide], half-maximal inhibition (IC50) was put at 3.3 nM.
`Cc1ncc(OC(F)F)cc1-c1nn(C(C)C)c2cc(C(=O)N[C@]3(C)CS(=O)(=O)C[C@H]3O)cnc12` [Example 56, 3-(5-(difluoromethoxy)-2-methylpyridin-3-yl)-N-((3S,4S)-4-hydroxy-3-methyl-1,1-dioxidotetrahydrothiophen-3-yl)-1-isopropyl-1H-pyrazolo[4,3-b]pyridine-6-carboxamide]: the IC50 came out at 209 nM. This IC50 is about 63-fold higher than that of the compound before.
In the case of `CC(C)n1nc(-c2cncc(OC(F)(F)F)c2)c2ncc(C(=O)NC3(C)CS(=O)(=O)C3)cc21` [Example 114, 1-isopropyl-N-(3-methyl-1,1-dioxidothietan-3-yl)-3-(5-(trifluoromethoxy)pyridin-3-yl)-1H-pyrazolo[4,3-b]pyridine-6-carboxamide] it was 20 nM.

Values taken from patent US20240059700A1, “NOVEL DIACYLGLYCERIDE O-ACYLTRANSFERASE 2 INHIBITORS” (Merck Sharp & Dohme LLC, priority 2020, published 2024).
